Assay results published in ChEMBL document CHEMBL2146404, “O-Hydroxyl- or o-amino benzylamine-tacrine hybrids: multifunctional biometals chelators, antioxidants, and inhibitors of cholinesterase activity and amyloid-β aggregation” (Bioorg Med Chem, 2012).
pIC50: −log10 of the molar value. Activity calls are given as the source filed them. No cut-off for these calls is given here.

Assays:
Acetylcholinesterase [1] = target: Acetylcholinesterase (Electrophorus electricus, UniProt O42275)
Description: Inhibition of electric eel AChE using acetylthiocholine chloride as substrate preincubated for 15 mins by Ellman's method

Cholinesterase = Cholinesterase (Equus caballus, UniProt P81908)
Sequence of Cholinesterase (P81908 whole entry): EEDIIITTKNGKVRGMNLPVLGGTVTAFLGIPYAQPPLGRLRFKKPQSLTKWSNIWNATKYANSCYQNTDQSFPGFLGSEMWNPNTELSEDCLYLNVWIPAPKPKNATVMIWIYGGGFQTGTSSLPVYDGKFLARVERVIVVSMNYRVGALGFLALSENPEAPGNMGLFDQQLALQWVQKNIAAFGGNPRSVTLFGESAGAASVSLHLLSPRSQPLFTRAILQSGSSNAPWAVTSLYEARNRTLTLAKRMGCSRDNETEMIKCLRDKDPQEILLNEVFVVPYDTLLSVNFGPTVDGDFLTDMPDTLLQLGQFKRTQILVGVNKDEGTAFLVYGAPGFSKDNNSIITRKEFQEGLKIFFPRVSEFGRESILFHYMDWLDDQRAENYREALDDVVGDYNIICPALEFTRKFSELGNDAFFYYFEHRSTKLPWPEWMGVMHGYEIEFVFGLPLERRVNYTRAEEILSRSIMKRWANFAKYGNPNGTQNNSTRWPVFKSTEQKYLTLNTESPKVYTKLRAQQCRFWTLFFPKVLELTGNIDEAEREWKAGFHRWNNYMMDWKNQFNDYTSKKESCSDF
Description: Inhibition of equine serum BuChE using butyrylthiocholine chloride as substrate preincubated for 15 mins by Ellman's method

Acetylcholinesterase [2] = target: Acetylcholinesterase (Homo sapiens, UniProt P22303); test: Inhibition of human recombinant AChE using acetylthiocholine chloride as substrate preincubated for 15 mins by Ellman's method
Sequence of Acetylcholinesterase (Homo sapiens, UniProt P22303) (P22303 whole entry): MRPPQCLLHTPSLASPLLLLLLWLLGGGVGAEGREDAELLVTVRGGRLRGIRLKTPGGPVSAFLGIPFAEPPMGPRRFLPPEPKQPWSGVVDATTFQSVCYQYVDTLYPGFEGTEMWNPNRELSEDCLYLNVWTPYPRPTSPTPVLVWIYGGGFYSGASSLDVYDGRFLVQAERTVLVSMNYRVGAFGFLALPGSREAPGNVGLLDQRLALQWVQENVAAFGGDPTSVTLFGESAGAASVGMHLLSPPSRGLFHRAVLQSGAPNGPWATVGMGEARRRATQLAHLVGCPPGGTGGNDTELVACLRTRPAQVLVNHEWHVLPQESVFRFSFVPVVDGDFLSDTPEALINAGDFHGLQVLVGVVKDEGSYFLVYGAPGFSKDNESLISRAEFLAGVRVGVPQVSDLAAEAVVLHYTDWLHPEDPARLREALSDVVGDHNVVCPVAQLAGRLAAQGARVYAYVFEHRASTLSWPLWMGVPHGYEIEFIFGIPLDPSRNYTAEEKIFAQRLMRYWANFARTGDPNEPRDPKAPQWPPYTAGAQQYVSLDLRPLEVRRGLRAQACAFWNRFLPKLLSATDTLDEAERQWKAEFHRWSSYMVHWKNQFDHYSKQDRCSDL

[3] = Inhibition of […]-pretreated amyloid beta (1 to 42) self-aggregation at 20 uM after 48 hrs by thioflavin T based fluorometric assay
[4] = Metal chelating activity of the compound assessed as cupric ion complex formation at 40 uM after 30 mins by UV-vis spectrometry; type: functional
[5] = Metal chelating activity of the compound assessed as ferrous ion complex formation at 40 uM after 30 mins by UV-vis spectrometry; type: functional
[6] = Metal chelating activity of the compound assessed as zinc ion complex formation at 40 uM after 30 mins by UV-vis spectrometry; type: functional

Sequence of Acetylcholinesterase (Electrophorus electricus, UniProt O42275) (O42275 whole entry): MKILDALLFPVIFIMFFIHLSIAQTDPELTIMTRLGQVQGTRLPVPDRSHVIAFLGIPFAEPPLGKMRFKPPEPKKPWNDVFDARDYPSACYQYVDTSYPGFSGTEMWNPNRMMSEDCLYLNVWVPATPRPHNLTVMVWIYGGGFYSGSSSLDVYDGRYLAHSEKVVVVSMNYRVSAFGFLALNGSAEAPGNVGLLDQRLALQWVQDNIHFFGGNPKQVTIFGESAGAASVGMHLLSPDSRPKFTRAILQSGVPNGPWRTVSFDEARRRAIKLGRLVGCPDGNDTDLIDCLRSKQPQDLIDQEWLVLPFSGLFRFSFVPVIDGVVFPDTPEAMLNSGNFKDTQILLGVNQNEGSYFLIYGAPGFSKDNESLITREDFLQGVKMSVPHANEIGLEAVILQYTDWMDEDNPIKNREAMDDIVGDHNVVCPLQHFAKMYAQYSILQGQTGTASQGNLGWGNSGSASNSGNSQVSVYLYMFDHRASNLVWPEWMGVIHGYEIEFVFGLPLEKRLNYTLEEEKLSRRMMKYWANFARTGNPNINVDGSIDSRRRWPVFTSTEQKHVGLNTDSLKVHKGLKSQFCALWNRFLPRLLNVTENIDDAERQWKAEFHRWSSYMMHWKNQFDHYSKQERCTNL

For Oc1ccccc1CNCCCCCCCCNc1c2c(nc3ccccc13)CCCC2, the pIC50 (Acetylcholinesterase [1]) was 8.21 and the pIC50 (Cholinesterase) was 8.20.

CN(C)c1ccccc1CNCCCCCCCCNc1c2c(nc3ccccc13)CCCC2 showed a pIC50 (Acetylcholinesterase [1]) of 8.81, a pIC50 (Cholinesterase) of 8.68 and a pIC50 (Acetylcholinesterase [2]) of 8.39. It also gave an inhibition [3] of 38.6%.

Oc1ccccc1CNCCCNc1c2c(nc3ccccc13)CCCC2 showed a pIC50 (Acetylcholinesterase [1]) of 6.88 and a pIC50 (Cholinesterase) of 7.34.

In the case of Oc1ccccc1CNCCNc1c2c(nc3ccccc13)CCCC2, the pIC50 (Acetylcholinesterase [1]) was 6.84 and the pIC50 (Cholinesterase) was 8.00.

Work on CN(C)c1ccccc1CNCCCCCCCNc1c2c(nc3ccccc13)CCCC2 yielded a pIC50 (Acetylcholinesterase [1]) of 8.46, a pIC50 (Cholinesterase) of 8.53 and a pIC50 (Acetylcholinesterase [2]) of 8.29. For the same molecule, the inhibition [3] was 30.7%.

In the case of Oc1ccccc1CNCCCCNc1c2c(nc3cc(Cl)ccc13)CCCC2, the pIC50 (Acetylcholinesterase [1]) was 6.90 and the pIC50 (Cholinesterase) was 7.55.

Oc1ccccc1CNCCCCCCNc1c2c(nc3ccccc13)CCCC2 showed a pIC50 (Acetylcholinesterase [1]) of 7.60 and a pIC50 (Cholinesterase) of 8.02.

Work on CCN(CC)c1ccccc1CNCCCCCCCCNc1c2c(nc3ccccc13)CCCC2 yielded a pIC50 (Acetylcholinesterase [1]) of 8.87, a pIC50 (Cholinesterase) of 8.55 and an inhibition [3] of 40.1%.

In the case of Oc1ccccc1CNCCCCCCCCCNc1c2c(nc3cc(Cl)ccc13)CCCC2, the pIC50 (Acetylcholinesterase [1]) was 8.11 and the pIC50 (Cholinesterase) was 7.64.

Work on Oc1ccccc1CNCCCCNc1c2c(nc3ccccc13)CCCC2 yielded a pIC50 (Acetylcholinesterase [1]) of 6.60 and a pIC50 (Cholinesterase) of 7.69.

Oc1ccccc1CNCCCCCCNc1c2c(nc3cc(Cl)ccc13)CCCC2 showed a pIC50 (Acetylcholinesterase [1]) of 7.37 and a pIC50 (Cholinesterase) of 7.95.

CN(C)c1ccccc1CNCCCCCCCCCNc1c2c(nc3ccccc13)CCCC2 showed a pIC50 (Acetylcholinesterase [1]) of 9.26, a pIC50 (Cholinesterase) of 8.58 and a pIC50 (Acetylcholinesterase [2]) of 8.45. For the same molecule, the Activity [4] was “Active”, the Activity [5] was “Active” and the Activity [6] was “Active”. It also gave an inhibition [3] of 39.4%.

Work on Oc1ccccc1CNCCNc1c2c(nc3cc(Cl)ccc13)CCCC2 yielded a pIC50 (Acetylcholinesterase [1]) of 7.65 and a pIC50 (Cholinesterase) of 8.00.

In the case of Oc1ccccc1CNCCCCCCCNc1c2c(nc3ccccc13)CCCC2, the pIC50 (Acetylcholinesterase [1]) was 8.02 and the pIC50 (Cholinesterase) was 8.23.

For Oc1ccccc1CNCCCCCCCNc1c2c(nc3cc(Cl)ccc13)CCCC2, the pIC50 (Acetylcholinesterase [1]) was 7.98 and the pIC50 (Cholinesterase) was 7.75.

In the case of Oc1ccccc1CNCCCCCCCCNc1c2c(nc3cc(Cl)ccc13)CCCC2, the pIC50 (Acetylcholinesterase [1]) was 8.17, the pIC50 (Cholinesterase) was 7.73 and the inhibition [3] was 25.8%.

Work on c1ccc(CNCCCCCCCCNc2c3c(nc4ccccc24)CCCC3)nc1 yielded a pIC50 (Acetylcholinesterase [1]) of 8.53 and a pIC50 (Cholinesterase) of 8.52.

Work on Oc1ccccc1CNCCCCCCCCCNc1c2c(nc3ccccc13)CCCC2 yielded a pIC50 (Acetylcholinesterase [1]) of 8.12 and a pIC50 (Cholinesterase) of 8.09.

Oc1ccccc1CNCCCNc1c2c(nc3cc(Cl)ccc13)CCCC2 showed a pIC50 (Acetylcholinesterase [1]) of 7.36 and a pIC50 (Cholinesterase) of 7.12.
